Experimental data as given in patent US20080103201A1, “Novel alpha-Glucosidase inhibitor from Tabernaemontana dichotoma” (priority 2006, published 2008).

Legend:
[1] = Post-prandial blood glucose concentration in rats; format: in vivo
[2] = target: α-glucosidase (E.C.3.2.1.20); experiment: α-Glucosidase enzyme inhibition assay (PNP-G substrate, spectrophotometric); format: biochemical
Description: α-Glucosidase (E.C.3.2.1.20) enzyme inhibition assay was performed according to the slightly modified method of Matsui et al. α-glucosidase (E.C.3.2.1.20) from Saccharomyces species, purchased from Wako Pure Chemical Industries Ltd. (Wako 076-02841). The enzyme inhibition was measured spectrophotometrically at pH 6.9 and at 37° C. using 0.7 mM p-nitrophenyl-α-D-glucopyranoside (PNP-G) as a substrate and 500 m units/mL enzyme, in 50 mM sodium phosphate buffer containing 100 mM NaCl. […] The increment in absorption at 400 nm, due to the hydrolysis of PNP-G by α-glucosidase, was monitored continuously on microplate spectrophotometer (Spectra Max Molecular Devices, USA).) [T. Matsui, C. Yoshimoto, K. Osajima, T. Oki, and Y. Osajima. Biosci. Biotech. Biochem., 1996, 60, 2019].

IC50 ([2]; pH 6.9, 37° C., 0.7 mM PNP-G substrate, 500 m units/mL enzyme): 22.27 ± 0.112 µM
potency compared with Acarbose (times) ([2]; α-glucosidase inhibition, relative to acarbose): approximately 35 times
SMILES: CC(=O)OC1CCC2(C)C(CCC3(C)C2CC=C2C4CC(C)(C)CCC4(C)CCC23C)C1(C)C (stereo not drawn) [β-Amyrin acetate, 12-Oleanen-3-yl acetate]
post-prandial blood glucose concentration [1]: reduced
